Laboratory results reported in patent publication US20160281125A1, “ANTIMICROBIAL COMPOUND SUSCEPTIBILITY TEST” (priority 2013, published 2016).

How the values were obtained:
E. coli strain 35218 = experiment: Carbapenem test, Triton fixation buffer and BacUni QuickFISH staining (Example 4); assay type: cell-based; conditions: FIG. 9; E. coli 35218; 10 μg/ml
Method: (§1) An isolated colony from an overnight Tryptocase Soy Agar (TSA) plate for each bacteria was suspended in 1 ml Tryptocase Soy Broth (TSB) in a 5 ml BD polystyrene round bottom tube. TSB cultures were incubated at 37° C. for 1.5 hours shaking. […] of each stationary-phase culture were transferred to 2 ml Eppendorf microcentrifuge tubes containing 500 μl of Normal Saline (BD); or 500 μl Normal Saline with imipenem, ertapenem, or meropenem at a concentration of […], […], or 40 μg/ml (26.67 μg/ml final concentration). Tubes were inverted then incubated at 37° C. stagnant for thirty minutes. Then 10 μl from each tube was pipetted onto plain glass slide on a 55° C. heat block, followed by 25 μl fixation buffer (0.5% T×100, 100 mM Tris pH 9, 24% Ethanol, and 10 mM NaCl); slide is incubated until sample is dry. Ten μl of BacUni QuickFISH hybridization buffer was added to each slide followed by a 22×22 mm coverslip. The slide was then incubated at 55° C. for 15 minutes. The slides were viewed on a fluorescence microscope 60× oil immersion on Dual TxR/FITC. Images were taken with a 1 second exposure.
(§2) The control fixation in this experiment has all the same components, except no Triton X-100. This was done to assess whether the selective lysis step is required to resolve a difference between susceptible and resistant bacteria.

[1] = tested on: K. pneumoniae strain 13882; experiment: as above; assay type: cell-based; conditions: FIG. 10; K. pneumoniae 13882; 10 μg/ml
Method: as §1, §2

[2] = tested on: K. pneumoniae strain BAA2146 NDM+; experiment: as above; assay type: cell-based; conditions: FIG. 11, 10 μg/ml
Method: as §1, §2

[3] = tested on: class D beta-lactamase Enterobacteriaceae; experiment: Lysis test on simulated blood cultures vs CLSI disk diffusion (Example 9); assay type: cell-based; conditions: the one Class D strain incorrect with ertapenem; cut-off ≦30% resistant
Method: In this example, isolates tested include strains with and without carbapenemases. From fresh blood agar plates, three colonies per strain were used to inoculate blood culture media containing human blood and grown overnight at 37° C. with shaking, producing a simulated blood culture. Cultures were then diluted 1:10 into broth medium and grown for an additional hour at 37° C. with shaking. For each strain, four 250 μL aliquots were added into four separate 2 mL Eppendorf microcentrifuge tubes. […] Tubes were vortexed to resuspend the pellet completely, and then OD600 measurement was taken and the percent change, or percent lysis, between the control and antibiotic tubes was calculated (percent change=[control OD−antibiotic OD]/control OD). Results were then compared to the susceptibility of the strains, determined using the Clinical and Laboratory Standards Institute (CLSI) methods for disk diffusion. […]
Of note, if a strain was determined to be intermediate to a drug by the disk diffusion method using CLSI breakpoints, it was expected to correlate to the resistant answer by the method of the invention. […] With this consideration, it is preferable that intermediate strains are conservatively scored as resistant to prevent possible treatment failure. […]

K. pneumo 13882 = experiment: Selective lysis test, OD600, meropenem and cefotaxime (Example 2); assay type: cell-based, K. pneumoniae
Method: (§3) In this experiment the following strains were tested: strain K. pneumoniae 13882 (previously considered meropenem sensitive and cefotaxime sensitive); E. coli BAA-197 (ESBL) (which expresses an extended-spectrum (beta)-lactamase enzyme and was previously considered meropenem sensitive and cefotaxime resistant); K. pneumoniae BAA-1705 (KPC) (which expresses a carbapenemase enzyme and was previously considered meropenem resistant and cefotaxime resistant); and K. pneumoniae BAA-2146 (NDM1) (which expresses the metallo-beta-lactamase-1 enzyme and was previously considered meropenem resistant and cefotaxime resistant).
(§4) An isolated colony from an overnight Tryptocase Soy Agar (TSA) plate of each bacteria was suspended in 1 ml Tryptocase Soy Broth (TSB) in a 5 ml BD polystyrene round bottom tube. TSB cultures were incubated at 37° C. for 1.5 hours shaking. Three 250 μl aliquots of each stationary-phase culture were then transferred to three 2 ml Eppendorf microcentrifuge tubes. One tube contained 500 μl of Normal Saline (BD); the second tube contained 500 μl Normal Saline with meropenem at 10 μg/ml; and the third tube contained 500 μl Normal Saline with cefotaxime (abbreviated […]) at 10 μg/ml. Tubes were inverted then incubated at 37° C. stagnant for thirty minutes. Then […] of lysis buffer (0.5% SDS in PSB) was added to each tube and each tube was vortexed for 5 seconds. Post incubation, all tubes were spun at 10000 G for 5 minutes. Supernatant was decanted and the pellet resuspended in Normal Saline. Tubes were vortexed. OD600 was measured using Eppendorf uvettes in a spectrophotometer. The delta between the control and the meropenem normal saline, or the control and the cefotaxime normal saline was used to determine susceptibility.

K. pneumo BAA-1705 (KPC) = experiment: as above; assay type: cell-based, K. pneumoniae
Method: as §3, §4

[4] = tested on: K. pneumo BAA-2146 (NDM1); experiment: as above; assay type: cell-based, K. pneumoniae
Method: as §3, §4

E. coli BAA-197 (ESBL) = experiment: as above; assay type: cell-based
Method: as §3, §4

C[C@@H](O)[C@H]1C(=O)N2C(C(=O)O)=C(S[C@@H]3CN[C@H](C(=O)Nc4cccc(C(=O)O)c4)C3)[C@H](C)[C@H]12 [ertapenem]
test result (susceptibility or resistance) by BacUni QuickFISH staining (E. coli strain 35218): detect susceptibility | test result (susceptibility or resistance) by BacUni QuickFISH staining [1]: detect susceptibility | test result (susceptibility or resistance) by BacUni QuickFISH staining [2]: detect resistance | lysis (percent change of OD600) [3]: 36%

CO/N=C(\C(=O)N[C@@H]1C(=O)N2C(C(=O)O)=C(COC(C)=O)CS[C@H]12)c1csc(N)n1 [cefotaxime]
% diff (K. pneumo 13882; K. pneumo 13882, OD600 vs control): 69.8% | OD600 (K. pneumo 13882; K. pneumo 13882, antibiotic 10 μg/ml, 30 min, SDS lysis buffer + vortex, 1.5 h culture): 0.11 | assay score (sensitive or resistant) (K. pneumo 13882; K. pneumoniae 13882): sensitive | % diff (K. pneumo BAA-1705 (KPC); K. pneumo BAA-1705 (KPC), OD600 vs control): 34.1% | OD600 (K. pneumo BAA-1705 (KPC); K. pneumo BAA-1705 (KPC), antibiotic 10 μg/ml, 30 min, SDS lysis buffer + vortex, 1.5 h culture): 0.334 | assay score (sensitive or resistant) (K. pneumo BAA-1705 (KPC); K. pneumoniae BAA-1705 (KPC)): resistant | % diff ([4]; K. pneumo BAA-2146 (NDM1), OD600 vs control): 6.7% | OD600 ([4]; K. pneumo BAA-2146 (NDM1), antibiotic 10 μg/ml, 30 min, SDS lysis buffer + vortex, 1.5 h culture): 0.28 | assay score (sensitive or resistant) ([4]; K. pneumoniae BAA-2146 (NDM1)): resistant | assay score (sensitive or resistant) (E. coli BAA-197 (ESBL)): resistant | % diff (E. coli BAA-197 (ESBL); OD600 vs control): 19.1% | OD600 (E. coli BAA-197 (ESBL); antibiotic 10 μg/ml, 30 min, SDS lysis buffer + vortex, 1.5 h culture): 0.292
